Experimental data reported in patent publication US20220184071A1, “GEPOTIDACIN FOR USE IN THE TREATMENT OF BACTERIAL URINARY TRACT INFECTIONS” (GlaxoSmithKline Intellectual Property Development Limited, priority 2019, published 2022).
Values after ≈ are worked out from the molar mass of the structure shown. “Also recorded” adds a separate entry of the source.

Columns and labels:
[1] = tested on: Proteus (Proteus mirabilis, Proteus penneri, Proteus hauseri); test: MIC by CLSI agar dilution, Example 1 Method 2; format: cell-based; conditions: n = 56
Description: (§1) Antimicrobial activity was determined in a second study by […] using the CLSI recommended procedure in serial two-fold dilutions and the minimum inhibitory concentration (MIC) was determined as the lowest concentration of the compound that inhibited visible growth.
(§2) MICs were determined according to CLSI agar dilution guidelines.

Shigella sonnei = test: MIC by CLSI agar dilution, Example 1 Method 2; format: cell-based; conditions: n=64
Description: as §1, §2

[2] = tested on: Klebsiella oxytoca, Klebsiella variicola, Proteus hauseri and Proteus peneri; test: MIC by CLSI agar dilution, Example 1 Method 2; format: cell-based; conditions: in each case against at least one isolate
Description: as §1, §2

Shigella = test: MIC by CLSI agar dilution, Example 1 Method 2; format: cell-based
Description: as §1, §2

Shigella flexneri = test: MIC by CLSI agar dilution, Example 1 Method 2; format: cell-based; conditions: n=24
Description: as §1, §2

Shigella boydii = test: MIC by CLSI agar dilution, Example 1 Method 2; format: cell-based; conditions: n=3
Description: as §1, §2

[3] = tested on: Enterobacter (Enterobacter aerogenes, Enterobacter cloacae complex); test: MIC by CLSI agar dilution, Example 1 Method 2; format: cell-based; conditions: n = 55
Description: as §1, §2

[4] = tested on: Klebsiella (Klebsiella oxytoca, Klebsiella variicola, Klebsiella pneumoniae); test: MIC by CLSI agar dilution, Example 1 Method 2; format: cell-based; conditions: n = 55
Description: as §1, §2

[5] = tested on: All Qualifying Uropathogens; test: Phase IIa microbiological response (micro-ITT population); format: in vivo, human; conditions: for Microbiological Failure, n (%) (95% Confidence Interval): n 8
P. aeruginosa = test: MIC by CLSI agar dilution, Example 1 Method 2; format: cell-based, Pseudomonas aeruginosa; conditions: n = 55
Description: as §1, §2

S. saprophyticus = test: Phase IIa PK/PD and microbiological response by uropathogen; format: in vivo, human; conditions: Participant 8
Description: (§3) This phase IIa single center study evaluated the safety, tolerability, pharmacokinetics, and efficacy of oral gepotidacin 1500 mg BID for 5 days in female subjects with acute cystitis. Clean catch mid-stream urine specimens were obtained for quantitative culture by standard methods. Urine samples were taken from all participants pre-treatment (baseline) and at all post-baseline visits. All urine samples were sent to a central laboratory (PPD Global Clinical Laboratories, Highland Heights, Ky., USA) for Gram stain, quantitative culture, pathogen identification and susceptibility testing. See FIG. 1 for participant disposition and study outline.
(§4) Susceptibility testing by CLSI broth microdilution and gradient diffusion (fosfomycin only) was conducted (CLSI, 2015, Methods for dilution antimicrobial susceptibility tests for bacteria that grow aerobically; approved standard-tenth edition; and CLSI, 2018. Performance Standards for Antimicrobial Susceptibility Testing; Twenty-seventh Informational Supplement M100-S28). Inclusion in the microbiological intent-to-treat population (micro-ITT), required growth of a qualifying baseline uropathogen (≥10^5 CFU/mL). See FIG. 2 for the baseline algorithm.
(§5) For pharmacokinetic assessments, serial blood and urine samples for the assessment of gepotidacin PK concentrations were collected out to 12 hours post dose (T) following the morning dose on Days 1 and 4. CT (trough) concentrations were collected on Days 1-5. PK concentrations of gepotidacin in plasma and urine were measured using a validated LC-MS/MS bio-analytical assay.

C. koseri = test: as above; format: in vivo, human; conditions: Participant 1
Description: as §3, §4, §5

E. coli = test: as above; format: in vivo, human
Description: as §3, §4, §5

K. pneumoniae = test: as above; format: in vivo, human; conditions: Participant 7
Description: as §3, §4, §5

[6] = tested on: S. lugdenensis, S. agalactiae, Streptococcus group G and Streptococcus group F; test: MIC by CLSI broth microdilution, Example 5 second study; format: cell-based; conditions: at least one strain of every organism listed
Excerpt: A second study tested gepotidacin by CLSI broth microdilution against bacterial isolates collected from patients with acute bacterial skin and soft tissue infections between 2013-2014.
Amoxicillin/clavulanic acid, linezolid, fusidic acid, ceftriaxone, ceftaroline, vancomycin, penicillin, quinupristin/dalfopristin, erythromycin, clindamycin, meropenem, tetracycline, chloramphenicol, flucloxacillin, telavancin, daptomycin, trimethoprim/sulfamethoxazole, gentamicin, levofloxacin, tigecycline and cefuroxime were included as comparators. MICs were determined by broth microdilution according to CLSI methods.
In addition, MICs were determined by broth microdilution according CLSI methods and all the comparators from the list above were evaluated against gram-positive aerobe organisms selected from S. lugdenensis, S. agalactiae, Streptococcus group G and Streptococcus group F.

For O=c1ccc2ncc(=O)n3c2n1C[C@H]3CN1CCC(NCc2cc3c(cn2)OCCC3)CC1 [gepotidacin, (2R)-2-({4-[(3,4-dihydro-2H-pyrano[2,3-c]pyridin-6-ylmethyl)amino]-1-piperidinyl}methyl)-1,2-dihydro-3H,8H-2a,5,8a-triazaacenaphthylene-3,8-dione], the MIC50 [1] was 8 µg/mL (≈ 17.8 µM), the MIC90 [1] was 32 µg/mL (≈ 71.3 µM) and the “Number of Isolates at Gepotidacin MIC 0.5 mg/L” value [1] was 3. For the same compound, the “Number of Isolates at Gepotidacin MIC 1 mg/L” value [1] was 4, the “Number of Isolates at Gepotidacin MIC 2 mg/L” value [1] was 11 and the “Number of Isolates at Gepotidacin MIC 4 mg/L” value [1] was 9. For the same compound, the “Number of Isolates at Gepotidacin MIC 8 mg/L” value [1] was 10, the “Number of Isolates at Gepotidacin MIC ≥16 mg/L” value [1] was 19 and the MIC90 (Shigella sonnei) was 2 µg/mL (≈ 4.46 µM). The MIC [2] was ≥ 4 µg/mL, the “% of the tested isolates inhibited at ≤2 mg/L” value (Shigella; 91 isolates) was 95.6% and the “% of the tested isolates inhibited at ≤8 mg/L” value (Shigella; 91 isolates) was 100%. The MICs ranged (Shigella; 91 isolates) was 0.125 to 8 mg/L, the MIC50 (Shigella; Shigella, n = 91) was 1 µg/mL (≈ 2.23 µM) and the MIC90 (Shigella; Shigella, n = 91) was 2 µg/mL (≈ 4.46 µM). For the same compound, the “Number of Isolates at Gepotidacin MIC 0.5 mg/L” value (Shigella; n = 91) was 18, the “Number of Isolates at Gepotidacin MIC 1 mg/L” value (Shigella; n = 91) was 36 and the “Number of Isolates at Gepotidacin MIC 2 mg/L” value (Shigella; n = 91) was 19. For the same compound, the “Number of Isolates at Gepotidacin MIC 4 mg/L” value (Shigella; n = 91) was 3, the “Number of Isolates at Gepotidacin MIC 8 mg/L” value (Shigella; n = 91) was 1 and the “Number of Isolates at Gepotidacin MIC ≤0.25 mg/L” value (Shigella; n = 91) was 14. For the same compound, the “Effect of levofloxacin non-susceptibility or QRDR substitutions in GyrA and ParC on activity” value (Shigella; where data was available) was “unaffected”, the MIC90 (Shigella flexneri) was 2 µg/mL (≈ 4.46 µM) and the MIC (Shigella boydii) was 2 µg/mL (≈ 4.46 µM). The MIC50 [3] was 16 µg/mL (≈ 35.7 µM), the MIC90 [3] was 32 µg/mL (≈ 71.3 µM) and the “Number of Isolates at Gepotidacin MIC 2 mg/L” value [3] was 3. The “Number of Isolates at Gepotidacin MIC 4 mg/L” value [3] was 12, the “Number of Isolates at Gepotidacin MIC 8 mg/L” value [3] was 7 and the “Number of Isolates at Gepotidacin MIC ≤0.25 mg/L” value [3] was 1. The “Number of Isolates at Gepotidacin MIC ≥16 mg/L” value [3] was 32, the MIC50 [4] was 16 µg/mL (≈ 35.7 µM) and the MIC90 [4] was 64 µg/mL (≈ 143 µM). For the same compound, the “Number of Isolates at Gepotidacin MIC 1 mg/L” value [4] was 1, the “Number of Isolates at Gepotidacin MIC 4 mg/L” value [4] was 6 and the “Number of Isolates at Gepotidacin MIC 8 mg/L” value [4] was 14. For the same compound, the “Number of Isolates at Gepotidacin MIC ≥16 mg/L” value [4] was 34, the “Microbiological Failure, n (%) (95% Confidence Interval)” value ([5]; Follow-up Visit) was 2 (25) (3-65) and the “Microbiological Failure, n (%) (95% Confidence Interval)” value ([5]; TOC Visit) was 1 (13) (<1-53). The “reduction in susceptibility to gepotidacin (≥4-fold increase in MIC)” value ([5]; baseline uropathogen vs same uropathogen at subsequent visits) was “no evidence of reduction in susceptibility; also recorded: No participants developed post-treatment uropathogens with reduced susceptibility”, the MIC50 (P. aeruginosa; Pseudomonas aeruginosa) was 8 µg/mL (≈ 17.8 µM) and the MIC90 (P. aeruginosa; Pseudomonas aeruginosa) was 32 µg/mL (≈ 71.3 µM). For the same compound, the “Number of Isolates at Gepotidacin MIC 0.5 mg/L” value (P. aeruginosa) was 1, the “Number of Isolates at Gepotidacin MIC 1 mg/L” value (P. aeruginosa) was 2 and the “Number of Isolates at Gepotidacin MIC 2 mg/L” value (P. aeruginosa) was 4. For the same compound, the “Number of Isolates at Gepotidacin MIC 4 mg/L” value (P. aeruginosa) was 18, the “Number of Isolates at Gepotidacin MIC 8 mg/L” value (P. aeruginosa) was 15 and the “Number of Isolates at Gepotidacin MIC ≥16 mg/L” value (P. aeruginosa) was 15. The “Microbiological success at Follow-up” value (S. saprophyticus) was “Success”, the “Microbiological success at TOC” value (S. saprophyticus) was “Success” and the “Microbiological success at Follow-up” value (C. koseri) was “Failure”. The “Microbiological success at TOC” value (C. koseri) was “Success”, the “Microbiological success at Follow-up” value (E. coli; Participant 2) was “Success” and the “Microbiological success at TOC” value (E. coli; Participant 2) was “Success”. The “Microbiological success at Follow-up” value (E. coli; Participant 3) was “Success”, the “Microbiological success at TOC” value (E. coli; Participant 3) was “Success” and the “Microbiological success at Follow-up” value (E. coli; Participant 4) was “Success”. The “Microbiological success at TOC” value (E. coli; Participant 4) was “Success”, the “Microbiological success at TOC” value (E. coli; Participant 5, failure due to an out of stability urine specimen) was “Failure^b” and the “Microbiological success at Follow-up” value (E. coli; Participant 5, failures at TOC considered failures at Follow-up) was “Failure^c”. The “Microbiological success at Follow-up” value (E. coli; Participant 6, MDR) was “Success”, the “Microbiological success at TOC” value (E. coli; Participant 6, MDR) was “Success” and the “Microbiological success at Follow-up” value (K. pneumoniae) was “Success”. For the same compound, the “Microbiological success at TOC” value (K. pneumoniae) was “microbiological success”, the “Microbiological success at TOC” value (K. pneumoniae; listed as GEP) was “Success” and the MIC [6] was ≤ 2 µg/mL.
